Biological target: PvlArgDC (pyruvoyl-dependent arginine decarboxylase) (Methanocaldococcus jannaschii, UniProt Q57764)
Experiment: X-ray crystal structure, […] A
Assay type: binding
Conditions: cocrystallized with 1-2 mM arginine, pH 6.7-7.3, 295 K; agmatine in all six active sites

Sequence of PvlArgDC (pyruvoyl-dependent arginine decarboxylase) (Q57764 53-165): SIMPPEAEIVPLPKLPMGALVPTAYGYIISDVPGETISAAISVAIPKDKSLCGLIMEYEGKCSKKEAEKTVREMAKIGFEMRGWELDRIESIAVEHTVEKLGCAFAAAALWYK
Sequence of PvlArgDC (pyruvoyl-dependent arginine decarboxylase) (Q57764 1-52): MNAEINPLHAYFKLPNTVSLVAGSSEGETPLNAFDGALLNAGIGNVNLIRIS

Q: With `N=C(N)NCCCCN` [agmatine] as the compound, how does the “X-ray crystal structure, 2.0 A” value read?
A: The value was “all six protomers were fully processed and contained the product agmatine at the active site”.
